Experiment: Impurity profile (sum of all impurities, HPLC) at start and after storage
Format: physicochemical
Protocol: All HPLC measurements were performed with an […].
Impurity profile: Sum of all the impurities: HPLC, in %: […]

Sum of all the impurities, HPLC (15 days (70° C./75% relative humidity)): 1.92%
Sum of all the impurities, HPLC (Start): 1.07%
SMILES: CC(C)c1c(C(=O)Nc2ccccc2)c(-c2ccccc2)c(-c2ccc(F)cc2)n1CC[C@@H](O)C[C@@H](O)CC(=O)[O-].CC(C)c1c(C(=O)Nc2ccccc2)c(-c2ccccc2)c(-c2ccc(F)cc2)n1CC[C@@H](O)C[C@@H](O)CC(=O)[O-].[Ca+2] (relative stereo) [amorphous atorvastatin calcium, calcium salt of [R-(R*,R*)]-2-(4-fluorophenyl)-β,δ-dihydroxy-5-(1-methylethyl)-3-phenylphenylamino)carbonyl]-1H-pyrrol-1-heptanoic acid]
